The subject of experiment [1] is F21T_c-kit1 (DNA, G4) GGGAGGGCGCTGGGAGGAGGG
The experiment can be described thus: FRET melting. The conditions noted are these: K+ 10 mM (potassium phosphate); 10 mM potassium phosphate pH 7; 0.8 µM compound, 0.4 µM DNA, no competitor dsDNA.

Experiment [2] has as its system 22_hTelo (DNA, G4) AGGGTTAGGGTTAGGGTTAGGG
The experiment can be described thus: fluorescent indicator displacement. The conditions noted are these: K+ 40 mM (30 mM KCl + potassium phosphate); 10 mM potassium phosphate pH 7, 25 °C; 0.5 µM thiazole orange displaced, 0.25 µM DNA.

In experiment [3] the test system is 22_c-kit1 (DNA, G4) AGGGAGGGCGCTGGGAGGAGGG
The experiment can be described thus: fluorescent indicator displacement. The conditions noted are these: K+ 40 mM (30 mM KCl + potassium phosphate); 10 mM potassium phosphate pH 7, 25 °C; 0.5 µM thiazole orange displaced, 0.25 µM DNA.

For experiment [4], the system named is 21_c-kit2 (DNA, G4) CGGGCGGGCGCGAGGGAGGGG
Kind of experiment: fluorescent indicator displacement. The conditions noted are these: K+ 40 mM (30 mM KCl + potassium phosphate); 10 mM potassium phosphate pH 7, 25 °C; 0.5 µM thiazole orange displaced, 0.25 µM DNA.

Experiment [5] concerns 22_c-myc (DNA, G4) TGAGGGTGGGTAGGGTGGGTAA
Kind of experiment: fluorescent indicator displacement. As to conditions: K+ 40 mM (30 mM KCl + potassium phosphate); 10 mM potassium phosphate pH 7, 25 °C; 0.5 µM thiazole orange displaced, 0.25 µM DNA.

The subject of experiment [6] is 22_k-ras (DNA, G4) AGGGCGGTGTGGGAATAGGGAA
Kind of experiment: fluorescent indicator displacement. The conditions noted are these: K+ 40 mM (30 mM KCl + potassium phosphate); 10 mM potassium phosphate pH 7, 25 °C; 0.5 µM thiazole orange displaced, 0.25 µM DNA.

Experiment [7] deals with 26_ds (DNA, duplex) CAATCGGATCGAATTCGATCCGATTG
Kind of experiment: fluorescent indicator displacement. As to conditions: K+ 40 mM (30 mM KCl + potassium phosphate); 10 mM potassium phosphate pH 7, 25 °C; 0.5 µM thiazole orange displaced, 0.25 µM DNA.

For experiment [8], the system named is F21T_hTelo (DNA, G4) GGGTTAGGGTTAGGGTTAGGG
Kind of experiment: FRET melting. As to conditions: K+ 10 mM (potassium phosphate); 10 mM potassium phosphate pH 7; 0.8 µM compound, 0.4 µM DNA, no competitor dsDNA.

Experiment [9] relates to F21T_k-ras (DNA, G4) GGGCGGTGTGGGAATAGGGAA
The experiment can be described thus: FRET melting. The conditions noted are these: K+ 10 mM (potassium phosphate); 10 mM potassium phosphate pH 7; 0.8 µM compound, 0.4 µM DNA, no competitor dsDNA.

Experiment [10] concerns F20T_c-kit2 (DNA, G4) GGGCGGGCGCGAGGGAGGGG
The experiment can be described thus: FRET melting. The conditions noted are these: K+ 10 mM (potassium phosphate); 10 mM potassium phosphate pH 7; 0.8 µM compound, 0.4 µM DNA, no competitor dsDNA.

The test system of experiment [11] is F21T_c-myc (DNA, G4) GAGGGTGGGTAGGGTGGGTAA
The experiment can be described thus: FRET melting. As to conditions: K+ 10 mM (potassium phosphate); 10 mM potassium phosphate pH 7; 0.8 µM compound, 0.4 µM DNA, no competitor dsDNA.

In PMC10078150 (2023) one finds ΔTm and DC50 data, which are given here for four compounds.

What is called ΔTm is the change in melting temperature against a reference sample.

As to `C(=N\[C@@H](COCc1ccc(-c2ccccn2)nc1)c1ccccc1)/c1ccccn1.C(=N\[C@@H](COCc1ccc(-c2ccccn2)nc1)c1ccccc1)/c1ccccn1.C(=N\[C@@H](COCc1ccc(-c2ccccn2)nc1)c1ccccc1)/c1ccccn1.[Fe+2].[Fe+2]`, the ΔTm in experiment [1] was 27.2 °C. Further, the DC50 in experiment [2] came out at 1950 ± 90 nM; in experiment [3] it was 1410 ± 30 nM; in experiment [4] it was 1260 ± 60 nM; in experiment [5], 800 ± 40 nM; in [6], 650 ± 30 nM; in [7], 5300 ± 300 nM.

`C(=N\[C@@H](COCc1ccc(-c2ccccn2)nc1)c1ccccc1)/c1ccc(OCc2cn(Cc3ccccc3)nn2)cn1.C(=N\[C@@H](COCc1ccc(-c2ccccn2)nc1)c1ccccc1)/c1ccc(OCc2cn(Cc3ccccc3)nn2)cn1.C(=N\[C@@H](COCc1ccc(-c2ccccn2)nc1)c1ccccc1)/c1ccc(OCc2cn(Cc3ccccc3)nn2)cn1.[Fe+2].[Fe+2]`: the ΔTm in experiment [8] turned out to be 24.6 °C; in experiment [1] it was 23.7 °C; in experiment [9], 21.0 °C. The DC50 in experiment [2] is 1060 ± 30 nM; in [3], 870 ± 20 nM; in experiment [4], 850 ± 50 nM; in [5], 400 ± 30 nM; in experiment [6], 450 ± 20 nM; in experiment [7], 3900 ± 200 nM.

As to `C(=N\[C@H](COCc1ccc(-c2ccccn2)nc1)c1ccccc1)/c1ccccn1.C(=N\[C@H](COCc1ccc(-c2ccccn2)nc1)c1ccccc1)/c1ccccn1.C(=N\[C@H](COCc1ccc(-c2ccccn2)nc1)c1ccccc1)/c1ccccn1.[Fe+2].[Fe+2]`, the figures for the ΔTm in [8], in [10] and in [11] were 27.6 °C, 19.8 °C and 11.7 °C, respectively. Besides, the DC50 worked out at 2200 ± 100 nM in [2]; 960 ± 40 nM in experiment [3]; 1050 ± 40 nM in experiment [4]; 530 ± 20 nM in experiment [5]; 420 ± 20 nM in experiment [6]; 3800 ± 200 nM in experiment [7].

Consider `C(=N\[C@H](COCc1ccc(-c2ccccn2)nc1)c1ccccc1)/c1ccc(OCc2cn(Cc3ccccc3)nn2)cn1.C(=N\[C@H](COCc1ccc(-c2ccccn2)nc1)c1ccccc1)/c1ccc(OCc2cn(Cc3ccccc3)nn2)cn1.C(=N\[C@H](COCc1ccc(-c2ccccn2)nc1)c1ccccc1)/c1ccc(OCc2cn(Cc3ccccc3)nn2)cn1.[Fe+2].[Fe+2]`, for which the ΔTm in experiment [10] stood at 11.9 °C; in experiment [11] it was 5.2 °C; in experiment [9] it was 41.8 °C. Moreover, the DC50 in experiment [2] was 1050 ± 50 nM; in [3], 790 ± 30 nM; in experiment [4] it was 780 ± 50 nM; in [5], 300 ± 30 nM; in [6], 270 ± 10 nM; in experiment [7], 2600 ± 100 nM.
